The results in this text go back to patent publication US5656591A, “Antimicrobial agents and method for treating products therewith” (Morinaga Milk Industry Co., Ltd., priority 1992, dated 1997).

In test [1] the test system is Staphylococcus aureus JCM2151. Put plainly: Test for antimicrobial activity (turbidity): growth inhibiting concentration of antibiotics. The test is classed as cell-based. The following applies: for MIC: Staphylococcus aureus. The method, then: (§1) Precultures of test microorganisms to be used in the tests described hereunder were prepared in such a manner that: from the frozen preservation of dispersions of test microorganisms, a loop of the respective strains of the microorganisms were taken out and spread onto TRI PETIT CASE SOYA AGAR MEDIA (by BBL Company), and incubated at 37° C. for 16 hours; the colonies grown on the culture media were scraped by a platinum loop and cultivated in 2.1% Mueller-Hington Broth (by Difco Company) respectively for several hours at 37° C. The resultant microbial cultures at logarithmic phase in 3×10^8 /ml of microbial concentration were used as the precultures.
(§2) The test media to be used in the respective tests were prepared in such a manner that: aqueous solutions in a predetermined concentration of the lactoferrin hydrolysates or the lactoferrin-derived antimicrobial peptides of (1) and (2) in Preparation of Samples (supra), as well as the samples of antibiotics of (3) (supra) were respectively sterilized with filters (by Advantec Company); then a quantity of the resultant solutions of respective samples were selectively added to a quantity of basal medium (Mueller-Hington Broth) prepared in the eventual concentration of 2.1%, thereby combinations of the samples and their concentrations in the respective test media were adjusted as specified in the respective tests.
(§3) Antimicrobial activity was examined as follows: A quantity of the respective precultures prepared in (1) immediately above was diluted with 2.1% Mueller-Hington Broth to result in 2×10^6 /ml of microbial concentration; 100 μl aliquots of the resultant liquid were added to 100 μl aliquots of one of the test media as specified in the respective test; the resultant media were incubated at 37° C. for 16 hours; then the turbidity of the resultant culture broths were measured thereby antimicrobial activity was examined.
(§4) Components in the test and control media and eventual concentrations thereof were adjusted by properly combining 0 mg, 0.4 mg, 1.6 mg and 6.4 mg/ml of lactoferrin hydrolysate of (1) (in Preparation of Samples, supra). or 0 μg, 16 μg, 64 μg, and 256 μg/ml of lactoferrin-derived antimicrobial peptides of (2) (in Preparation of Samples, supra), and 0 μg, 0.01 μg, 0.1 μg, 1 μg, and 10 μg/ml of antibiotics of (3) (supra), then antimicrobial activity of the combined use of the components against Escherichia coli 0-111 and Staphylococcus aureus (JCM2151) as well as growth inhibiting concentrations of the antibiotics were investigated.

In another test the test system is Escherichia coli 0-111. The description is as above. The test is classed as cell-based. The procedure: as §1, §2, §3, §4
Test [2] concerns Staphylocoecus aureus (JCM-2151). Put plainly: Viability assay in Mueller-Hington Broth. The test is classed as cell-based, Staphylococcus aureus. The procedure:
as §1
as §2, with “tests. […]” for “tests.”

Test [3] deals with methicillin-resistant Staphylococcus aureus (wild type). Put plainly: Viability assay in Mueller-Hington Broth on antibiotics-resistant microorganism. The test is classed as cell-based. The procedure:
as §1
as §2, with “tests. […]” for “tests.”

Test [4] concerns Staphylococcus aureus (JCM-2151). Put plainly: Viability assay (survival rate) in cow's milk medium. The following applies: for antimicrobial activity of the compound added without antimicrobial peptide or lactoferrin hydrolysate (in words): compound alone; for effect of the coexisting compound on the antimicrobial activity of the lactoferrin hydrolysate (in words): with lactoferrin hydrolysate 1. Format: cell-based. Also noted: key to survival rate: % of control colony count 1 (control colony count 2 at peptide 0). The method, then:
The colonies grown on the culture medium were scraped by a platinum loop and cultivated in 1% peptone (by Difco Company) culture medium for several hours at 37° C., and the resultant microbial culture at logarithmic phase was used as the preculture in a serial concentration of 3×10^8 /ml.
A quantity of the resultant solutions of the samples were selectively mixed with a quantity of the basal medium, thereby test media for the respective tests were prepared in the combinations and eventual concentrations as specified in the respective tests.
Utilizing the samples (5), (7), (8), (9), (10), (14), (15), (17), (18) and (19), test media were prepared in the same manner as in the preparation of the test media containing sample (3) and the like, except that the aqueous solution (in the cases of samples (5) and (7), aqueous suspensions) were not dealt with sterilization filters.
To 2 ml aliquots of test media prepared in (3-1) (supra), […] aliquots of the preculture of Staphylococcus aureus prepared in (1) (2. Method, supra) were added, then incubated at 37° C. for 1 hour, 200 μl aliquots of the resultant cultures were taken out and diluted with 1% peptone solution in a series of 10^n respectively, 110 μl aliquots of the resultant dilution series were spread onto plates of standard agar culture medium, and after incubation at 37° C. for 24 hours the number of colonies grown on the plates were counted (Test. Colony Count).
Control coloney counts 1 were determined in the same manner as in the determination of the test coloney counts, except that […] aliquots of the preculture of Staphylococcus aureus prepared in (1) (2. Method, supra) were added to 2 ml aliquots of the respective control media 1 prepared in (3-2) (supra). Furthermore, control coloney counts 2 were determined in the same manner as in the determination of the test coloney counts, except that […] aliquots of the preculture of Staphylococcus aureus prepared in (1) (supra) were added to 2 ml aliquots of the respective control media 1 prepared in (3-2) (supra).
Survival rate 1=(Test Colony Count/Control Colony Count 1)×100
Survival rate 2=(Control Colony Count 2/Control Colony Count 1)×100
(Note: In the tables shown hereinafter, vulues of survival rate 2 are indicated in the row where the concentration of antimicrobial peptide or lactoferrin hydrolysate is 0.)

Where [5] appears, read: JCM2151, antimicrobial peptide (Seq. ID No. 27) 0 μg/ml.
[6] abbreviates: JCM2151, antimicrobial peptide (Seq. ID No. 27) 16 μg/ml.
[7] abbreviates: JCM2151, antimicrobial peptide (Seq. ID No. 27) 64 μg/ml.
[8] abbreviates: JCM2151, antimicrobial peptide (Seq. ID No. 27) 256 μg/ml.
Where [9] appears, read: lactoferrin hydrolysate 0 mg/ml.
Where [10] appears, read: lactoferrin hydrolysate 0.4 mg/ml.
Where [11] appears, read: lactoferrin hydrolysate 1.6 mg/ml.
[12] abbreviates: lactoferrin hydrolysate 6.4 mg/ml.
Where [13] appears, read: Escherichia coli, 0111, antimicrobial peptide (Seq. ID No. 27) 0 μg/ml.
Where [14] appears, read: Escherichia coli, 0111, antimicrobial peptide (Seq. ID No. 27) 16 μg/ml.
Where [15] appears, read: Escherichia coli, 0111, antimicrobial peptide (Seq. ID No. 27) 64 μg/ml.
The mark [16] stands for this setting: Escherichia coli, 0111, antimicrobial peptide (Seq. ID No. 27) 256 μg/ml.
Where [17] appears, read: with antimicrobial peptide Seq. ID No. 26.

Take `[H]/N=C(/N)N[C@H]1[C@H](O)[C@@H](O)[C@H](O[C@@H]2O[C@@H](C)[C@](O)(C=O)[C@H]2O[C@@H]2O[C@@H](CO)[C@H](O)[C@@H](O)[C@@H]2NC)[C@@H](N/C(N)=N\[H])[C@@H]1O` [streptomycin]: the MIC was more than 1 µg/mL in test [1] (setting [5]); more than 1 µg/mL in test [1] (setting [6]); 1 µg/mL in test [1] (setting [7]); 0.01 µg/mL in test [1] (setting [8]); more than 1 µg/mL in the test with Escherichia coli 0-111 (setting [13]); more than 1 µg/mL in the test on Escherichia coli 0-111 (setting [14]). The MIC stood at 1 µg/mL with Escherichia coli 0-111 (setting [15]) and 0.01 µg/mL in the test with Escherichia coli 0-111 (setting [16]). The “Growth inhibiting Concentration of antibiotics” value (shortened to “Growth inhibiting Concentration”) was more than 1 µg/mL in test [1] (setting [9]); more than 1 µg/mL in test [1] (setting [10]); 1 µg/mL in test [1] (setting [11]); 0.1 µg/mL in test [1] (setting [12]); more than 1 µg/mL in the test on Escherichia coli 0-111 (setting [9]); more than 1 µg/mL with Escherichia coli 0-111 (setting [10]). Also, the entries for the “Growth inhibiting Concentration” value in the test on Escherichia coli 0-111 (setting [11]) and in the test with Escherichia coli 0-111 (setting [12]) were 1 µg/mL and 0.01 µg/mL, respectively. In test [2] (Test 25: streptomycin 1 μg/ml alone (control row)), the survival rate came to 12.4%.
For `CC1(C)S[C@@H]2[C@H](NC(=O)Cc3ccccc3)C(=O)N2[C@H]1C(=O)O` [penicillin], the MIC is more than 1 µg/mL in test [1] (setting [5]); 1 µg/mL in test [1] (setting [6]); 1 µg/mL in test [1] (setting [7]); 0.1 µg/mL in test [1] (setting [8]); more than 1 µg/mL in the test with Escherichia coli 0-111 (setting [13]); more than 1 µg/mL in the test with Escherichia coli 0-111 (setting [14]). Besides, the MIC amounted to 1 µg/mL in the test with Escherichia coli 0-111 (setting [15]) and 0.1 µg/mL with Escherichia coli 0-111 (setting [16]). Also, the “Growth inhibiting Concentration” value in test [1] (setting [9]) was more than 1 µg/mL; in test [1] (setting [10]), 1 µg/mL; in test [1] (setting [11]) it was 1 µg/mL; in test [1] (setting [12]), 0.1 µg/mL; with Escherichia coli 0-111 (setting [9]), more than 1 µg/mL; with Escherichia coli 0-111 (setting [10]), 1 µg/mL. In addition, the “Growth inhibiting Concentration” value in the test with Escherichia coli 0-111 (setting [11]) amounted to 1 µg/mL; in the test with Escherichia coli 0-111 (setting [12]) it was 0.1 µg/mL. The survival rate in test [2] (Test 25: penicillin 1 μg/ml alone (control row)) was determined as 14.2%.
Turning to `CN(C)c1ccc(O)c2c1C[C@H]1C[C@H]3[C@H](N(C)C)C(O)=C(C(N)=O)C(=O)[C@@]3(O)C(O)=C1C2=O` [minomycin], the survival rate was 32% in test [3] (Test 24: peptide 0, minomycin 10 μg/ml) and 5.2% in test [3] (Test 24: peptide 0, minomycin 50 μg/ml).
Turning to tocopherol, the survival rate in test [4] (Test 3: peptide 0, tocopherol 0.1 mg/ml) is recorded as 101; in test [4] (Test 3: peptide 0, tocopherol 0.5 mg/ml), 113; in test [4] (Test 3: peptide 0, tocopherol 1 mg/ml) it was 112. Besides, in test [4], the “antimicrobial activity of the compound added without antimicrobial peptide or lactoferrin hydrolysate (in words)” value is given as “no antimicrobial activity was observed”. Further, the “effect of the coexisting compound on the antimicrobial activity of the antimicrobial peptide (in words)” value (shortened to “effect … of the antimicrobial peptide (in words)”) in test [4] (setting [17]) is listed as “augments the antimicrobial activity of the peptide”.
With `CCO` [ethyl alcohol, Ethyl Alcohol], the “antimicrobial activity of the compound added without antimicrobial peptide or lactoferrin hydrolysate (in words)” value in test [4] was “no antimicrobial activity was observed”. Also, the “effect … of the antimicrobial peptide (in words)” value in test [4] (setting [17]) is on record as “potentiates the antimicrobial activity of the peptide”.
On to `CCCCCCCCCCCCCCCCCC(=O)OCC(O)CO` (racemic) [1-monostearoyl-rac-glycerol], for which the survival rate in test [4] (Test 19: peptide 0, 1-monostearoyl-rac-glycerol 0.5 mg/ml) amounted to 116%; in test [4] (Test 19: peptide 0, 1-monostearoyl-rac-glycerol 1 mg/ml), 133%; in test [4] (Test 19: peptide 0, 1-monostearoyl-rac-glycerol 2 mg/ml), 98%. Besides, the “antimicrobial activity of the compound added without antimicrobial peptide or lactoferrin hydrolysate (in words)” value in test [4] is “no antimicrobial activity was observed”. In test [4] (setting [17]), the “effect … of the antimicrobial peptide (in words)” value is given as “augments the antimicrobial activity of the antimicrobial peptide”.
On to `O=C1O[C@H]([C@@H](O)CO)C(O)=C1O` [ascorbic acid, Ascorbic Acid], for which, in test [4], the “antimicrobial activity of the compound added without antimicrobial peptide or lactoferrin hydrolysate (in words)” value was “no antimicrobial activity was observed” and the “effect of the coexisting compound on the antimicrobial activity of the lactoferrin hydrolysate (in words)” value is “augments the antimicrobial activity of the lactoferrin hydrolysate 1”. Moreover, the “effect … of the antimicrobial peptide (in words)” value in test [4] (with antimicrobial peptide Seq. ID No. 27) is given as “augments the antimicrobial activity of the peptide”.
In the case of `O=C(O)CC(O)(CC(=O)O)C(=O)O` [citric acid, Citric Acid], the “effect of the coexisting compound on the antimicrobial activity of the lactoferrin hydrolysate (in words)” value in test [4] is given as “augments the antimicrobial activity of the lactoferrin hydrolysate 1”.
